Read-outs that look alike come from different tables or passages of the source.
Molecular target: human TRPA1 channel (Homo sapiens (Human), UniProt O75762)
Test: hTRPA1 CHO Ca2+ FLIPR Tetra assay: block of cinnamaldehyde induced calcium influx
Assay type: cell-based
Conditions: CHO cells expressing TRPA1, Hill coefficient fixed to 1.5
Protocol: CHO cells expressing TRPA1 were plated into 384-well plates, incubated overnight at 37° C., and loaded with BD calcium indicator dye for 1 hr at 37° C. followed by 15 minutes at room temperature. The assay buffer was Hank's Balanced Salt Solution (HBSS) containing 20 mM HEPES (pH readjusted to 7.4) along with 0.02% BSA.
Following dye load and plate cool down, compounds were added to the cells using FLIPR Tetra. Plates were then incubated with compounds for 10 minutes or 90 minutes at room temperature prior to adding agonist. Following this incubation, about an EC80 concentration of cinnamaldehyde […] was added to active the channels and block of cinnamaldehyde induced calcium influx was measured.
Fixing the Hill coefficient will generally reduce variability of the IC50 determination. The IC50 results were individually examined to make sure the MIN and MAX points were set correctly prior to validation of the results.

[1] = read-out: hTRPA1 IC50 10 min, 10 minutes incubation with compound before cinnamaldehyde (about EC80)
[2] = read-out: hTRPA1 IC50 90 min, 90 minutes incubation with compound before cinnamaldehyde (about EC80)
[3] = hTRPA1 IC50 10 min, 10 minutes incubation with compound before cinnamaldehyde (about EC80)
[4] = hTRPA1 IC50 90 min, 90 minutes incubation with compound before cinnamaldehyde (about EC80)

Chain of human TRPA1 channel (O75762 whole entry): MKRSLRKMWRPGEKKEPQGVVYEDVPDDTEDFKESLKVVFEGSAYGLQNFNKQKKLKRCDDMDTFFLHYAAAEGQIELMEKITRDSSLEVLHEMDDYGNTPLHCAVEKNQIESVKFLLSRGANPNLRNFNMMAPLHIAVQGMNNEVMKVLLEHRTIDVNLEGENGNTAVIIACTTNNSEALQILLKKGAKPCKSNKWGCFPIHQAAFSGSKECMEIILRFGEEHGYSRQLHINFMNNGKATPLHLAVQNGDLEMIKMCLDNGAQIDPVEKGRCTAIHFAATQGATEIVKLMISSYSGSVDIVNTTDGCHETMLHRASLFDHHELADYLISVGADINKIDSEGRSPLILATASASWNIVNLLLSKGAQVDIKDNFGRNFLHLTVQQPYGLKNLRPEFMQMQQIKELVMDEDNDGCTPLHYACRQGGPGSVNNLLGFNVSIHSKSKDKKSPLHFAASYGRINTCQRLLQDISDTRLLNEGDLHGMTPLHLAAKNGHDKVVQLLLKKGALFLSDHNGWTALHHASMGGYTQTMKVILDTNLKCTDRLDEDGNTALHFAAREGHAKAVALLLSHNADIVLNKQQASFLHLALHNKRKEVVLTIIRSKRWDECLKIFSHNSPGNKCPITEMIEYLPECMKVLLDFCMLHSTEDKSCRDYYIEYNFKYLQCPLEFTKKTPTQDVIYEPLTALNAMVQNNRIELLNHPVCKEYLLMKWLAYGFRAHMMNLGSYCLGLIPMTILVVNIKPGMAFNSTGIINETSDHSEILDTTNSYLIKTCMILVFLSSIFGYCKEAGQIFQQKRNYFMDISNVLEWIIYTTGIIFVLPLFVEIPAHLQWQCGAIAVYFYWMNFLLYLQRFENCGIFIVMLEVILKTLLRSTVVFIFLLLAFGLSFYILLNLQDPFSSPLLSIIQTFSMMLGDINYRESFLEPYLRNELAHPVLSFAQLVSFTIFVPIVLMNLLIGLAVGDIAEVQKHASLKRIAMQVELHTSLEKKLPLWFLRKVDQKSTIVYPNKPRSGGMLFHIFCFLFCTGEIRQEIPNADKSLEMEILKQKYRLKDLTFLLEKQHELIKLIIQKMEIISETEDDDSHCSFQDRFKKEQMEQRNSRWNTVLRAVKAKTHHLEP

SMILES | IC50 [1] | IC50 [2] | IC50 [3] | IC50 [4]
O=c1c2cccnc2ncn1Cc1nc([C@@H]2CO[C@@H](c3ccc(F)cc3)C2)no1 [Example 147, 3-((3-((3R,5R)-5-(4-fluorophenyl)tetrahydro-furan-3-yl)-1,2,4-oxadiazol-5-yl)methyl)pyrido[2,3-d]pyrimidin-4(3H)-one] | 107 nM | 82 nM | – | –
Cn1cnc2ncn(Cc3nc([C@@H]4CO[C@@H](c5ccc6ncsc6c5)C4)no3)c(=O)c21 [Example 53, 1-((3-((3R,5R)-5-(benzo[d]thiazol-6-yl)tetrahydrofuran-3-yl)-1,2,4-oxadiazol-5-yl)methyl)-7-methyl-1,7-dihydro-6H-purin-6-one] | 146 nM | 88 nM | – | –
Cn1cnc2nc(Cl)n(Cc3nc([C@@H]4CO[C@@H](c5ccc(Cl)cc5)C4)no3)c(=O)c21 [Example 120, 2-chloro-1-((3-((3R,5R)-5-(4-chlorophenyl)tetrahydro-furan-3-yl)-1,2,4-oxadiazol-5-yl)methyl)-7-methyl-1,7-dihydro-6H-purin-6-one] | 29.4 nM | 20 nM | – | –
Cn1cnc2ncn(Cc3nc([C@@H]4CO[C@@H](c5ccc(Cl)cc5)C4)no3)c2c1=O [Example 55, 7-((3-((3R,5R)-5-(4-chlorophenyl)tetrahydro-furan-3-yl)-1,2,4-oxadiazol-5-yl)methyl)-1-methyl-1,7-dihydro-6H-purin-6-one] | 19 nM | 12 nM | – | –
Cn1c(=O)ccc2ncn(Cc3nc([C@@H]4CO[C@@H](c5ccc(Cl)cc5)C4)no3)c(=O)c21 [Example 46, 3-((3-((3R,5R)-5-(4-chlorophenyl)tetra-hydrofuran-3-yl)-1,2,4-oxadiazol-5-yl)methyl)-5-methyl-3,5-dihydropyrido[3,2-d] pyrimidine-4,6-dione] | 14.5 nM | 14 nM | – | –
Cc1cnn2ncn(Cc3nc([C@@H]4CO[C@@H](c5ccc(C#N)cc5)C4)no3)c(=O)c12 [Example 122, 4-((2R,4R)-4-(5-((5-methyl-4-oxopyrazolo[5,1-f][1,2,4]triazin-3(4H)-yl)methyl)-1,2,4-oxadiazol-3-yl)tetrahydrofuran-2-yl)benzonitrile] | 75.8 nM | 39 nM | – | –
O=c1c2ccnnc2ncn1Cc1nc([C@@H]2CO[C@@H](c3ccc(F)cc3)C2)no1 [Example 103, 6-[[3-[(3R,5R)-5-(4-fluorophenyl)tetrahydro-furan-3-yl]-1,2,4-oxadiazol-5-yl]methyl]pyrimido[4,5-c]pyridazin-5-one] | 71.7 nM | 89 nM | – | –
Cn1cnc2ncn(Cc3nc([C@@H]4CO[C@@H](c5cc(F)c(Cl)c(F)c5)C4)no3)c(=O)c21 [Example 83, 1-((3-((3R,5R)-5-(4-chloro-3,5-difluorophenyl)tetrahydrofuran-3-yl)-1,2,4-oxadiazol-5-yl)methyl)-7-methyl-1,7-dihydro-6H-purin-6-one] | – | – | 47.4 nM | 13 nM
Cn1cncc1C(=O)NCc1nc([C@H]2CO[C@H](c3ccc(Cl)cc3)C2)no1 (racemic) [Example 102, 3-methyl-N-[[3-[rac-(3S,5S)-5-(4-chlorophenyl)tetrahydro-furan-3-yl]-1,2,4-oxadiazol-5-yl]methyl]imidazole-4-carboxamide] | – | – | 38.9 nM | 23 nM
Cn1ncc2ncn(Cc3nc([C@@H]4CO[C@@H](c5ccc(Cl)cc5)C4)no3)c(=O)c21 [Example 151, 6-((3-((3R,5R)-5-(4-chlorophenyl)tetrahydro-furan-3-yl)-1,2,4-oxadiazol-5-yl)methyl)-1-methyl-1,6-dihydro-7H-pyrazolo[4,3-d] pyrimidin-7-one] | 47 nM | 32 nM | – | –
Cc1nc(N(C)C)n2ncn(Cc3nc([C@@H]4CO[C@@H](c5ccc(Cl)cc5)C4)no3)c(=O)c12 (racemic) [Example 105, 7-(dimethylamino)-5-methyl-3-[[3-[rac-(3R,5R)-5-(4-chlorophenyl)tetrahydro-furan-3-yl]-1,2,4-oxadiazol-5-yl]methyl]imidazo[5,1-f][1,2,4]triazin-4-one] | – | – | 42 nM | 59 nM
Cc1nc2nc(Cl)n(C)c2c(=O)n1Cc1nc([C@@H]2CO[C@@H](c3ccc(Cl)cc3)C2)no1 [Example 114, 8-chloro-1-((3-((3R,5R)-5-(4-chlorophenyl)tetrahydrofuran-3-yl)-1,2,4-oxadiazol-5-yl)methyl)-2,7-dimethyl-1,7-dihydro-6H-purin-6-one] | 37.8 nM | 22 nM | – | –
Nc1nc2ncccc2c(=O)n1Cc1nc([C@@H]2CO[C@@H](c3cccc(F)c3)C2)no1 [Example 119, 2-amino-3-((3-((3R,5R)-5-(3-fluorophenyl)tetrahydro-furan-3-yl)-1,2,4-oxadiazol-5-yl)methyl) pyrido[2,3-d]pyrimidin-4(3H)-one] | 31.9 nM | 13 nM | – | –
Cc1ncn2ncn(Cc3nc([C@@H]4CO[C@@H](c5ccc(F)cc5)C4)no3)c(=O)c12 [Example 75, 3-((3-((3R,5R)-5-(4-fluorophenyl)tetrahydro-furan-3-yl)-1,2,4-oxadiazol-5-yl)methyl)-5-methylimidazo[5,1-f][1,2,4]triazin-4(3H)-one] | – | 25 nM | – | –
Cc1nc(Br)n2ncn(Cc3nc([C@@H]4CO[C@@H](c5ccc(Cl)cc5)C4)no3)c(=O)c12 (racemic) [Example 107, 7-bromo-5-methyl-3-[[3-[rac-(3R,5R)-5-(4-chlorophenyl)tetrahydro-furan-3-yl]-1,2,4-oxadiazol-5-yl]methyl] imidazo[5,1-f][1,2,4] triazin-4-one] | – | – | 0.8 nM | 0.3 nM

Now from value to compound:

IC50 [1] | IC50 [2] | IC50 [3] | IC50 [4] | SMILES
– | 2.4 nM | – | – | O=c1c2cccc(=O)n2cnn1Cc1nc([C@@H]2CO[C@@H](c3ccc(Cl)cc3)C2)no1 [Example 82, 2-((3-((3R,5R)-5-(4-chlorophenyl)tetrahydro-furan-3-yl)-1,2,4-oxadiazol-5-yl)methyl)-2H-pyrido [1,2-d][1,2,4]triazine-1,6-dione]
4.48 nM | 2.1 nM | – | – | Nc1nn2c(C(F)(F)F)ncc2c(=O)n1Cc1nc([C@@H]2CO[C@@H](c3ccc(Cl)cc3)C2)no1 [Example 149, 2-amino-3-((3-((3R,5R)-5-(4-chlorophenyl)tetrahydro-furan-3-yl)-1,2,4-oxadiazol-5-yl)methyl)-7-(trifluoromethyl)imidazo [5,1-f][1,2,4]triazin-4(3H)-one]
4.16 nM | 3 nM | – | – | Cn1cnc2ncn(Cc3nc([C@@H]4CO[C@@H](c5ccc(Cl)cc5)C4)no3)c(=S)c21 [Example 59, 1-((3-((3R,5R)-5-(4-chlorophenyl)tetrahydro-furan-3-yl)-1,2,4-oxadiazol-5-yl)methyl)-7-methyl-1,7-dihydro-6H-purine-6-thione]
8.26 nM | 2.3 nM | – | – | Cc1cnn2ncn(Cc3nc([C@@H]4CO[C@@H](c5ccc6cnn(C)c6c5)C4)no3)c(=O)c12 [Example 138, 5-methyl-3-((3-((3R,5R)-5-(1-methyl-1H-indazol-6-yl)tetrahydrofuran-3-yl)-1,2,4-oxadiazol-5-yl)methyl)pyrazolo[5,1-f][1,2,4]triazin-4(3H)-one]
18.4 nM | 1.5 nM | – | – | Cn1cnc2nc(N)n(Cc3nc([C@@H]4CO[C@@H](c5ccc(Cl)cc5)C4)no3)c(=O)c21 [Example 71, 2-amino-1-((3-((3R,5R)-5-(4-chlorophenyl)tetrahydrofuran-3-yl)-1,2,4-oxadiazol-5-yl)methyl)-7-methyl-1,7-dihydro-6H-purin-6-one]
9.26 nM | 2.8 nM | – | – | Cc1cc(=O)nc2ccn(Cc3nc([C@@H]4CO[C@@H](c5ccc(Cl)cc5)C4)no3)c(=O)n12 [Example 63]
4.9 nM | 2.7 nM | – | – | Cn1nnc2ncn(Cc3nc([C@@H]4CO[C@@H](c5ccc(Cl)cc5)C4)no3)c(=O)c21 [Example 16, 6-((3-((3R,5R)-5-(4-chlorophenyl)tetra-hydrofuran-3-yl)-1,2,4-oxadiazol-5-yl)methyl)-1-methyl-1,6-dihydro-7H-[1,2,3]triazolo[4,5-d]pyrimidin-7-one]
1.2 nM | 0.8 nM | – | – | Cc1cnn2ncn(Cc3nc([C@@H]4CO[C@@H](c5ccc(Cl)cc5)C4)no3)c(=O)c12 [Example 48, 3-((3-((3R,5R)-5-(4-chlorophenyl)tetra-hydrofuran-3-yl)-1,2,4-oxadiazol-5-yl)methyl)-5-methylpyrazolo[5,1-f][1,2,4]triazin-4(3H)-one]
97.3 nM | 11 nM | – | – | Cn1cnc2nc(N)n(Cc3nc([C@@H]4CO[C@@H](c5ccc(C(F)(F)F)cc5)C4)no3)c(=O)c21 [Example 136, 2-amino-7-methyl-1-((3-((3R,5R)-5-(4-(trifluoromethyl)phenyl)tetrahydrofuran-3-yl)-1,2,4-oxadiazol-5-yl)methyl)-1,7-dihydro-6H-purin-6-one]
3.19 nM | 1.7 nM | – | – | Cn1ncc2nc(N)n(Cc3nc([C@@H]4CO[C@@H](c5ccc(Cl)cc5)C4)no3)c(=O)c21 [Example 150, 5-amino-6-((3-((3R,5R)-5-(4-chlorophenyl)tetrahydro-furan-3-yl)-1,2,4-oxadiazol-5-yl)methyl)-1-methyl-1,6-dihydro-7H-pyrazolo[4,3-d] pyrimidin-7-one]

Source: patent US10710994B2, “Oxadiazole transient receptor potential channel inhibitors” (Genentech, Inc., priority 2018, dated 2020)
